From patent US11358989B2, “Apratyramide therapeutic agents and methods of treatment” (University of Florida Research Foundation, Incorporated, priority 2017, dated 2022) come the findings set out here.

One data set concerns bFGF. The data set is described as follows: bFGF transcript level in HaCaT cells (RT-qPCR). The class given is cell-based, human. The settings on record: 16 h. The method, then: (§1) HaCaT cells were seeded in 6-well plates at a density of 2×10^5 per well and incubated further for 24 h in supplement-free medium prior to treatment. RNA was isolated at 3, 12 or 16 h post treatment using the RNeasy mini kit (QIAGEN, Valencia, Calif.). Total RNA was quantified using NanoDrop 2000. From 2 μg of total RNA, cDNA synthesis was done using SuperScript II Reverse Transcriptase (Invitrogen, Carlsbad, Calif.) and oligo (dT) (Invitrogen).
(§2) qPCR after reverse transcription (RT-qPCR) was performed on a 25 μL reaction solution containing a 0.3 μL aliquot of cDNA, 12.5 μL of TaqMan gene expression assay mix, 1.25 μL of probes, and 11 μL RNase-free water. qPCR was carried out on an ABI 7300 sequence detection system using the thermocycler program: 2 min at 50° C., 10 min at 95° C., and 15 s at 95° C. (40 cycles) and 1 min at 60° C. Each experiment was performed in triplicate. VEGF-A (Hs00900055_m1), PDGFB (Hs00266645_m1) and bFGF (Hs00966522_m1) were used as target genes, while GAPDH (Hs02758991_g1) was used as endogenous control. Graphs and data analysis were performed using the Prism software and analyzed using unpaired t test.

The test system of data set [1] is VEGF-A. The data set is described as follows: VEGF-A transcript level in HaCaT cells (RT-qPCR). The settings on record: for VEGF-A mRNA level induction: 30 μM; for increase of VEGF-A transcript levels: 16 h. The class given is cell-based, human. The method, then: (§3) Human keratinocyte HaCaT cells and human colon cancer HCT116 cells were cultured in Dulbecco's modified Eagle's medium (DMEM) supplemented with 10% fetal bovine serum at 37° C. humidified air and 5% CO2. Human normal colon (CCD-18Co) cells (ATCC) were cultured in Eagle's minimal essential medium (EMEM) supplemented with 10% fetal bovine serum at 37° C. humidified air and 5% CO2. Human Umbilical Vein Endothelial Cells (HUVEC, cat #CC-2519, Lonza) were cultured in EGM (Lonza cat #CC-3124) under the same condition.
HaCaT cells were seeded in 6-well plates at a density of 2×10^5 per well and incubated further for 24 h in supplement-free medium prior to treatment. […] Total RNA was quantified using NanoDrop 2000. From 2 μg of total RNA, cDNA synthesis was done using SuperScript II Reverse Transcriptase (Invitrogen, Carlsbad, Calif.) and oligo (dT) (Invitrogen).
as §2

For data set [2], the system named is VEGF-A. In words: VEGF-A transcript level in HCT116 cells (RT-qPCR). In kind it is cell-based, human. The note with it: 16 h. The method, then: as §3, §2
A further data set has as its system ORP150. The data set is described as follows: ORP150 transcript (microarray) and protein (immunoblot) in HaCaT cells. The class given is cell-based, human. The method, then:
(§4) HaCaT cells were seeded in 6-well clear bottom plate the day before treatment. The next day, cells were treated with 1 or solvent control (DMSO). 24 h later, whole cell lysates were collected using PhosphoSafe buffer (EMD Chemicals, Inc, Gibbstown, N.J.). Protein concentrations were measured with the BCA Protein Assay kit (Thermo Fisher Scientific, Rockford, Ill.). Lysates containing equal amounts of protein were separated by SDS polyacrylamide gel electrophoresis (4-12%), transferred to polyvinylidene difluoride membranes, probed with primary and secondary antibodies, and detected with the SuperSignal West Femto Maximum Sensitivity Substrate (Thermo Fisher Scientific). BIP, IRE1, β-actin and secondary anti-mouse and rabbit antibodies were from Cell Signaling Technology, Inc (Danvers, Mass.). ATF4 and ORP150 antibodies were obtained from Santa Cruz (Calif.).
(§5) RNA was analyzed using a NanoDrop spectrophotometer and Agilent 2100 Bioanalyzer to determine the RNA concentration and quality, respectively. RNA samples were processed using the GeneChip WT PLUS Reagent Kit (Affymetrix, Santa Clara, Calif.) according to the manufacturer's instruction. In brief, 250 ng of RNA were used for cDNA synthesis by reverse transcription, and the cDNA was utilized as a template for the biotin-labeled RNA prepared by in vitro transcription reaction. […]
(In general: Immunoblotting shows a protein as a band on a membrane.)

For a further data set, the system named is PDGFB. In words: PDGFB transcript level in HaCaT cells (RT-qPCR). In kind it is cell-based, human. The settings on record: 16 h. The method, then:
as §1, §2
In general terms: In qPCR the cycle at which signal appears reflects the starting amount.

The next data set has as its system CCD-18Co cells. In words: Cell viability assay (MTT), CCD-18Co. In kind it is cell-based, human. The note with it: 48 h. The method, then:
as §3
(§6) Cells were seeded in a 96-well clear bottom plate, and 24 h later cells were treated with various concentrations of the apratyramide or solvent control (DMSO). After 48 h of incubation, cell viability was detected using MTT according to the manufacturer's instructions (Promega, Madison, Wis.). Nonlinear regression analysis was carried out using GraphPad Prism software for IC50 value calculations.

Data set [3] deals with HaCaT cells. The data set is described as follows: Transcriptome profiling of HaCaT cells (Human Transcriptome Array 2.0, IPA). In kind it is cell-based. The method, then: as §1
as §5, with “reaction. The labeled RNA was further purified, fragmented, and hybridized with rotation at 45° C. for 16 h to the GeneChip™ Human Transcriptome Array 2.0. The arrays were washed and stained using the GeneChip Hybridization Wash and Stain kit on an Affymetrix Fluidics Station 450. The chips were scanned using a GeneChip 7G Scanner.” for “reaction.”

For another data set, the system named is IRE1. In words: IRE1 transcript (microarray) and protein (immunoblot) in HaCaT cells. In kind it is cell-based, human. The method, then:
as §4, §5

For the next data set, the system named is HUVECs. In words: In vitro angiogenesis assay (matrigel, HUVECs, HaCaT conditioned medium). The class given is cell-based, human. The settings on record: HUVECs 14 h, vs CM-DMSO. The method, then: HaCaT cells were seeded in 12-well plates in complete growth medium the day before treatment. The next day, the medium was replaced with fresh medium followed by the treatment of 1 or solvent control. After 24 h or incubation, the conditioned medium was collected for the in vitro angiogenesis assay.
HUVECs (Lonza) were used at passage 4 for this assay. In vitro Angiogenesis Assay Kit (Chemicon) was used according to the manufacturer's recommendation. Briefly, an ice-cold mixture of ECMatrix was transferred into a precooled 96-well plate. After the matrix solution had solidified (>1 h incubation at 37° C., 10,000 cells were mixed with the CM or EGM with or without the presence of VEGF-A protein, 100 ng/mL and plated into each well. After incubation at 37° C. for 14 h, images were captured for each well using a Nikon inverted microscope equipped with NIS-Elements software. Branch point counting was used as quantification method. Three random microscope view-fields were counted and the number of branch points was averaged for each well. Branch point for each group was calculated by averaging eight replicates from two independent experiments.

The next data set relates to ATF4. The data set is described as follows: ATF4 transcript (microarray) and protein (immunoblot) in HaCaT cells. In kind it is cell-based, human. The method, then:
as §4, §5

In data set [4] the test system is VEGF-A. The data set is described as follows: Measurement of human VEGF-A secretion from HaCaT cells (AlphaLISA). The settings on record: 24 h. The class given is cell-based. The method, then: as §3
HaCaT cells were seeded in a 96-well clear bottom plate. Cells were treated with various concentrations of apratyramide or solvent control (DMSO). After 24 h incubation, culture supernatants were collected for detection of VEGF-A using AlphaLISA kits (PerkinElmer, Waltham, Mass.) following the manufacturer's instruction. Briefly, acceptor bead and anti-VEGF-A antibody were incubated with the supernatants for 60 min, donor beads were added later and incubated for another 30 min. Signal was detected using Envision (PerkinElmer). Levels of VEGF-A (pg/mL) were calculated using a standard curve and then normalized based on cell numbers.

For data set [5], the system named is HaCaT cells. In words: Cell viability assay (MTT), HaCaT. The class given is cell-based, human. The settings on record: 24 h. The method, then: as §3
Cells were seeded in a 96-well clear bottom plate, and 24 h later cells were treated with various concentrations of the apratyramide or solvent control (DMSO). […] Nonlinear regression analysis was carried out using GraphPad Prism software for IC50 value calculations.

A further data set has as its system HCT116 cells. The data set is described as follows: Cell viability assay (MTT), HCT116. In kind it is cell-based, human. The settings on record: 48 h. The method, then:
as §3, §6

The subject of data set [6] is VEGF-A. In words: VEGF-A mRNA in ablated rabbit corneas, ex vivo organ culture. The settings on record: ablated rabbit corneas ex vivo, 25, 50 or 100 μM, 18 h. The method, then: The central 6 mm diameter area of corneas of twelve fresh rabbit globes (Pelfreeze) was ablated to a total depth of 155 microns using a Nidek excimer laser in phototherapeutic keratectomy mode. Ablated corneas were then surgically dissected from the rabbit globes using sterile scalpel and forceps, grasping only the scleral rims and not the clear cornea. The corneas were cultured in DMEM/F-12 1:1 (Thermo Fisher) containing 40 mM HEPES, 10% FBS, 0.01% dextran 40 (Tokyo Chemical Industry, Co., Ltd.) and 0.025% chondroitin sulfate (Chem-Impex International, Inc.) in 6-well plates. Twelve corneas were randomly distributed into four groups (three corneas in each group): DMSO, 25 μM, 50 μM or 100 μM apratyramide. […]
The central scar-like tissue from each cornea was collected using an 8 mm punch biopsy. […] The purified cDNA was then quantified using nanodrop and used to generate a standard curve. Serial 10-fold dilutions of the quantified cDNA amplicon were subjected to RT-qPCR using SYBR Select Master Mix (Applied Biosystems). […] The mass-normalized Ct values for the apratyramide treatment groups and DMSO control group (n=3 biological replicates per group) were analyzed by a one-way ANOVA (α=0.05, Microsoft Excel 2010, Analysis Tool Pack) followed by Tukey's HSD post hoc test manually calculated in Excel 2010 (FIG. 8).

Entries after “also recorded” stand apart in the source; their conditions may differ.

As to `CC[C@H](C)[C@@H](OC(=O)[C@H](Cc1ccc(OC)cc1)N(C)C)C(=O)N[C@H](C(=O)N(C)[C@@H](Cc1ccc(O)cc1)C(=O)N(C)[C@@H](Cc1ccc(O)cc1)C(=O)OC)C(C)C` [Compound 1, Apratyramide], the bFGF transcript level entry in the data set with bFGF is “stimulated”. Besides, the “VEGF-A mRNA level induction” value is 1.7 fold in the data set with VEGF-A [1] (4 h) and “greater induction effect” in the data set with VEGF-A [1] (12 h). The “increase of VEGF-A transcript levels” value with VEGF-A [1] (31.6 μM) came to 5 fold; in the data set with VEGF-A [1] (50 μM) it was 7 fold. For the same compound, the VEGF-A transcript level result in the data set on VEGF-A [2] is reported as “up-regulated”. Also, the VEGF-A transcript levels entry in the data set with VEGF-A [2] (fifty micro-molar) was “doubled”. Further, in the data set with ORP150, the “ORP150 transcript and protein levels” value is “up-regulated”. Besides, the PDGFB transcript level entry in the data set with PDGFB is recorded as “stimulated”. The “effects on cell viability” value in the data set with CCD-18Co cells is listed as “negligible effects”. Also, the VEGF-A in microarray result in the data set with HaCaT cells [3] (30 μM, 12 h) is given as “one of the most up-regulated genes”. Also, in the data set on HaCaT cells [3] (12 h treatment), the microRNAs in microarray entry is recorded as “down-regulation of several microRNAs”. In addition, the “IRE1 transcript and protein levels” value in the data set with IRE1 is “up-regulated”. Further, the “angiogenesis (tube-like structure formation) with conditioned medium” value with HUVECs (HaCaT culture treated with 30 μM for 24 h) and in the data set on HUVECs (HaCaT culture treated with 50 μM for 24 h) was “rescued” each time. Moreover, in the data set with ATF4, the “ATF4 transcript and protein levels” value was “up-regulated; also recorded: activated”. Besides, the “increase of VEGF-A secretion” value with VEGF-A [4] (31.6 μM) is listed as 1.3 fold; with VEGF-A [4] (50 μM), 1.5 fold. In the data set on HaCaT cells [5] (31.6 μM), the cytotoxicity entry is recorded as “without causing cytotoxicity”. The cell viability result with HaCaT cells [5] (50 μM) was “Around ninety-percent”. In addition, the “cytotoxicity (antiproliferative effect)” value in the data set on HCT116 cells was “minimal cytotoxicity”. Besides, the “VEGF-A mRNA in the cornea” value with VEGF-A [6] was “dose-dependent increase”.
